Columns and labels:
[1] = Effect of temperature (and pH) on the stability of the solution (purity); type: physicochemical; details: 7% solution in water
[2] = Effect of concentration on the stability of the solution (purity over time); details: in water at 25° C.

SMILES: CCN(CC)CCOC(=O)C(C)c1ccc2oc(-c3ccc(Cl)cc3)nc2c1.Cl (centres unmarked) [2-(diethylamino)ethyl 2-[(4-chlorophenyl)-5-benzoxazole]propionate•HCl]
- Stability of the solution at a temperature higher than 40° C. and a pH lower than 3 or greater than 6 [1]: not stable
- Purity at Day 3 ([2]; 0.01 wt %): 84.7%
- Purity at Day 7 ([2]; 0.01 wt %): 73.9%
- Purity at Day 14 ([2]; 0.01 wt %): 62.3%
- Purity at Day 21 ([2]; 0.01 wt %): 52.9%
- Purity at Day 28 ([2]; 0.01 wt %): 42.9%
- Purity at hr 0 ([2]; 0.01 wt %): 97.8%
- Purity at Day 3 ([2]; 0.1 wt %): 96.7%
- Purity at Day 7 ([2]; 0.1 wt %): 95.5%
- Purity at Day 14 ([2]; 0.1 wt %): 91.1%
- Purity at Day 21 ([2]; 0.1 wt %): 87.2%
- Purity at Day 28 ([2]; 0.1 wt %): 83.0%
- Purity at hr 0 ([2]; 0.1 wt %): 97.9%
- Purity at Day 3 ([2]; 1 wt %): 97.0%
- Purity at Day 7 ([2]; 1 wt %): 96.0%
- Purity at Day 14 ([2]; 1 wt %): 94.0%
- Purity at Day 21 ([2]; 1 wt %): 92.3%
- Purity at Day 28 ([2]; 1 wt %): 89.9%
- Purity at hr 0 ([2]; 1 wt %): 98.1%
- Purity at Day 3 ([2]; 3 wt %): 97.5%
- Purity at Day 7 ([2]; 3 wt %): 97.0%
- Purity at Day 14 ([2]; 3 wt %): 95.7%
- Purity at Day 21 ([2]; 3 wt %): 94.3%
- Purity at Day 28 ([2]; 3 wt %): 92.8%
- Purity at hr 0 ([2]; 3 wt %): 98.3%
- Purity at Day 3 ([2]; 5 wt %): 98.0%
- Purity at Day 7 ([2]; 5 wt %): 97.9%
- Purity at Day 14 ([2]; 5 wt %): 97.6%
- Purity at Day 21 ([2]; 5 wt %): 97.0%
- Purity at Day 28 ([2]; 5 wt %): 96.3%
- Purity at hr 0 ([2]; 5 wt %): 98.5%
- Purity at Day 3 ([2]; 7 wt %): 98.4%
- Purity at Day 7 ([2]; 7 wt %): 98.2%
- Purity at Day 14 ([2]; 7 wt %): 98.0%
- Purity at Day 21 ([2]; 7 wt %): 97.8%
- Purity at Day 28 ([2]; 7 wt %): 97.4%
- Purity at hr 0 ([2]; 7 wt %): 98.6%
- Purity at Day 3 ([2]; 8 wt %): 98.5%
- Purity at Day 7 ([2]; 8 wt %): 98.3%
- Purity at Day 14 ([2]; 8 wt %): 98.1%
- Purity at Day 21 ([2]; 8 wt %): 97.8%
- Purity at Day 28 ([2]; 8 wt %): 97.4%
- Purity at hr 0 ([2]; 8 wt %): 98.6%
- Purity at Day 3 ([2]; 10 wt %): 98.4%
- Purity at Day 7 ([2]; 10 wt %): 98.3%
- Purity at Day 14 ([2]; 10 wt %): 98.2%
- Purity at Day 21 ([2]; 10 wt %): 97.7%
- Purity at Day 28 ([2]; 10 wt %): 97.3%
- Purity at hr 0 ([2]; 10 wt %): 98.5%
- Purity at Day 3 ([2]; 15 wt %): 98.5%
- Purity at Day 7 ([2]; 15 wt %): 98.3%
- Purity at Day 14 ([2]; 15 wt %): 98.1%
- Purity at Day 21 ([2]; 15 wt %): 97.7%
- Purity at Day 28 ([2]; 15 wt %): 97.5%
- Purity at hr 0 ([2]; 15 wt %): 98.6%
- Purity at Day 3 ([2]; 20 wt %): 98.4%
- Purity at Day 7 ([2]; 20 wt %): 98.3%
- Purity at Day 14 ([2]; 20 wt %): 98.2%
- Purity at Day 21 ([2]; 20 wt %): 97.8%
- Purity at Day 28 ([2]; 20 wt %): 97.4%
- Purity at hr 0 ([2]; 20 wt %): 98.5%
- Purity at Day 3 ([2]; 30 wt %): 98.5%
- Purity at Day 7 ([2]; 30 wt %): 98.3%
- Purity at Day 14 ([2]; 30 wt %): 98.0%
- Purity at Day 21 ([2]; 30 wt %): 97.7%
- Purity at Day 28 ([2]; 30 wt %): 97.3%
- Purity at hr 0 ([2]; 30 wt %): 98.6%
- Purity at Day 3 ([2]; 50 wt %): 98.5%
- Purity at Day 7 ([2]; 50 wt %): 98.3%
- Purity at Day 14 ([2]; 50 wt %): 98.0%
- Purity at Day 21 ([2]; 50 wt %): 97.9%
- Purity at Day 28 ([2]; 50 wt %): 97.5%
- Purity at hr 0 ([2]; 50 wt %): 98.5%
- Stability when the concentration is 0.1% or lower [2]: not stable

Source: US20230157952A1, “METHOD FOR IMPROVING THE STABILITY OF A PHARMACEUTICAL COMPOSITION COMPRISING A HIGH PENETRATION DRUG, AND THE PHARMACEUTICAL COMPOSITION OBTAINED THEREFROM” (Techfields Inc., priority 2020, published 2023)
